Measured values from PubChem BioAssay AID248 (DTP/NCI, 2004).
Values joined by “and” are separate entries in the source; they are usually repeats but may differ in a detail not shown here. Identical values can stand only once. Inconclusive results and toxic doses are left out. Rule as the data show it: active = T/C of 150% or more; inactive = T/C below 125%.

Tested on: L1210 leukemia ip in BDF1 mice, survival T/C
Experiment: NCI In Vivo Anticancer Drug Screen. Data for tumor model L1210 Leukemia (intraperitoneal) in B6D2F1 (BDF1) mice
Settings: endpoint: mean survival time, higher = longer survival
In short: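 In this screen, tumor-bearing mice given compound are compared to those given vehicle, and their survival values are reported as a treated-to-control quotient.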

[1] = dose: 100.0 mg/kg/injection, schedule: Q04DX003 (ip), vehicle: saline with Tween-80
[2] = dose: 100.0 mg/kg/injection, schedule: Q04DX003 (ip), vehicle: Klucel (hydroxypropylcellulose) (HPC)
[3] = dose: 200.0 mg/kg/injection, schedule: Q04DX003 (ip), vehicle: Klucel (hydroxypropylcellulose) (HPC)
[4] = dose: 400.0 mg/kg/injection, schedule: Q04DX003 (ip), vehicle: Klucel (hydroxypropylcellulose) (HPC)
[5] = dose: 100.0 mg/kg/injection, schedule: Q01DX009 (ip), vehicle: saline with Tween-80
[6] = dose: 400.0 mg/kg/injection, schedule: Q01DX009 (ip), vehicle: saline with Tween-80
[7] = dose: 400.0 mg/kg/injection, schedule: Q04DX003 (ip), vehicle: saline with Tween-80

Measured: T/C

COC1CCC2(C)C3CCC4C(=CCC5C(C)(C)C(=O)CCC45C)CC3(C)CCC2C1(C)C (stereo unspecified)
inactive: dose: 75.0 mg/kg/injection, schedule: Q01DX001 (ip), vehicle: carboxymethylcellulose (CMC) 105 % of control | dose: 150.0 mg/kg/injection, schedule: Q01DX001 (ip), vehicle: carboxymethylcellulose (CMC) 110 % of control | dose: 300.0 mg/kg/injection, schedule: Q01DX001 (ip), vehicle: carboxymethylcellulose (CMC) 104 % of control

COc1cccc(/C(C)=N\NC(=O)c2ccccc2)c1
inactive: dose: 25.0 mg/kg/injection, schedule: Q04DX003 (ip), vehicle: saline with Tween-80 88 % of control | dose: 50.0 mg/kg/injection, schedule: Q04DX003 (ip), vehicle: saline with Tween-80 90 % of control | [1] 92 % of control

Cc1cccc(-c2nc3cc(Cl)ccc3c(=O)o2)c1
inactive: [2] 97 % of control | [3] 90 % of control

O=C1c2ccccc2-c2c(O)cccc21
inactive: dose: 100.0 mg/kg/injection, schedule: Q01DX001 (ip), vehicle: Klucel (hydroxypropylcellulose) (HPC) 94 % of control | dose: 200.0 mg/kg/injection, schedule: Q01DX001 (ip), vehicle: Klucel (hydroxypropylcellulose) (HPC) 100 % of control | dose: 400.0 mg/kg/injection, schedule: Q01DX001 (ip), vehicle: Klucel (hydroxypropylcellulose) (HPC) 96 % of control

C[Si](C)(O[Si](C)(C)C1C=CC=C1)C1C=CC=C1
inactive: dose: 12.5 mg/kg/injection, schedule: Q01DX001 (ip), vehicle: Klucel (hydroxypropylcellulose) (HPC) 91 % of control | dose: 25.0 mg/kg/injection, schedule: Q01DX001 (ip), vehicle: Klucel (hydroxypropylcellulose) (HPC) 91 % of control | dose: 50.0 mg/kg/injection, schedule: Q01DX001 (ip), vehicle: Klucel (hydroxypropylcellulose) (HPC) 88 % of control

O=S(=O)(CCCS(=O)(=O)Nc1ccccc1)Nc1ccccc1
inactive: dose: 100.0 mg/kg/injection, schedule: Q01DX001 (ip), vehicle: saline with Tween-80 103 % of control | dose: 200.0 mg/kg/injection, schedule: Q01DX001 (ip), vehicle: saline with Tween-80 97 % of control | dose: 400.0 mg/kg/injection, schedule: Q01DX001 (ip), vehicle: saline with Tween-80 90 % of control

CCCN(CCC)CCSC(=S)NCCOC
inactive: dose: 4.0 mg/kg/injection, schedule: Q01DX001 (sc), vehicle: olive oil, sesame oil, peanut oil 110 % of control | dose: 8.0 mg/kg/injection, schedule: Q01DX001 (sc), vehicle: olive oil, sesame oil, peanut oil 112 % of control | dose: 16.0 mg/kg/injection, schedule: Q01DX001 (sc), vehicle: olive oil, sesame oil, peanut oil 116 % of control | dose: 32.0 mg/kg/injection, schedule: Q01DX001 (sc), vehicle: olive oil, sesame oil, peanut oil 118 % of control | dose: 50.0 mg/kg/injection, schedule: Q01DX001 (ip), vehicle: olive oil, sesame oil, peanut oil 96 % of control | dose: 50.0 mg/kg/injection, schedule: Q01DX009 (ip), vehicle: acetone 93 % of control | dose: 100.0 mg/kg/injection, schedule: Q01DX001 (ip), vehicle: acetone 110 % of control | dose: 100.0 mg/kg/injection, schedule: Q01DX001 (ip), vehicle: olive oil, sesame oil, peanut oil 92 % of control | dose: 100.0 mg/kg/injection, schedule: Q01DX009 (ip), vehicle: acetone 101 % of control | dose: 200.0 mg/kg/injection, schedule: Q01DX001 (ip), vehicle: acetone 104 % of control | dose: 200.0 mg/kg/injection, schedule: Q01DX001 (ip), vehicle: olive oil, sesame oil, peanut oil 103 % of control | dose: 400.0 mg/kg/injection, schedule: Q01DX001 (ip), vehicle: olive oil, sesame oil, peanut oil 88 % of control

C[N+](C)(Cc1ccccc1)C1c2ccccc2-c2ccccc21
inactive: dose: 0.5 mg/kg/injection, schedule: Q04DX002 (ip), vehicle: Klucel (hydroxypropylcellulose) (HPC) 109 % of control | dose: 1.0 mg/kg/injection, schedule: Q04DX002 (ip), vehicle: Klucel (hydroxypropylcellulose) (HPC) 109 % of control | dose: 2.0 mg/kg/injection, schedule: Q04DX002 (ip), vehicle: Klucel (hydroxypropylcellulose) (HPC) 109 % of control

O=C(/C=C/c1ccccc1)N(c1ccccc1)C1CCCCC1
inactive: [2] 112 % of control | [3] 89 % of control | [4] 88 % of control

OC/C(=N/Nc1ccc2ccccc2n1)c1ccccc1
inactive: [5] 94 % of control | [1] 93 % of control | dose: 200.0 mg/kg/injection, schedule: Q01DX009 (ip), vehicle: saline with Tween-80 93 % of control | dose: 200.0 mg/kg/injection, schedule: Q04DX003 (ip), vehicle: saline with Tween-80 100 % of control | [6] 93 % of control | [7] 89 % of control

COC(=O)c1ccccc1N=NNc1ccccc1-c1nc(N)nc(N)n1
inactive: dose: 100.0 mg/kg/injection, schedule: Q01DX009 (ip), vehicle: Klucel (hydroxypropylcellulose) (HPC) 95 % of control | [2] 103 % of control | dose: 200.0 mg/kg/injection, schedule: Q01DX009 (ip), vehicle: Klucel (hydroxypropylcellulose) (HPC) 104 % of control | [3] 106 % of control | dose: 400.0 mg/kg/injection, schedule: Q01DX009 (ip), vehicle: Klucel (hydroxypropylcellulose) (HPC) 98 % of control | [4] 95 % of control

COC(=O)c1cc(Cl)cc(C(=O)OC)n1
inactive: dose: 100.0 mg/kg/injection, schedule: Q04DX003 (ip), vehicle: saline 100 % of control | dose: 200.0 mg/kg/injection, schedule: Q01DX009 (ip), vehicle: saline 94 % of control | dose: 200.0 mg/kg/injection, schedule: Q04DX003 (ip), vehicle: saline 103 % of control | dose: 400.0 mg/kg/injection, schedule: Q01DX009 (ip), vehicle: saline 100 % of control | dose: 400.0 mg/kg/injection, schedule: Q04DX003 (ip), vehicle: saline 99 % of control

CCOC(CN(Cc1ccccc1)CC(OCC)OCC)OCC
inactive: dose: 50.0 mg/kg/injection, schedule: Q04DX002 (ip), vehicle: saline with Tween-80 100 % of control | dose: 100.0 mg/kg/injection, schedule: Q04DX002 (ip), vehicle: saline with Tween-80 97 % of control and 100 % of control | dose: 200.0 mg/kg/injection, schedule: Q04DX002 (ip), vehicle: saline with Tween-80 92 % of control | dose: 400.0 mg/kg/injection, schedule: Q04DX002 (ip), vehicle: saline with Tween-80 91 % of control

N#CSc1ncnc2nc[nH]c12
inactive: dose: 3.5 mg/kg/injection, schedule: Q01DX Z (ip), vehicle: water 104 % of control | dose: 5.3 mg/kg/injection, schedule: Q01DX Z (ip), vehicle: water 104 % of control | dose: 6.0 mg/kg/injection, schedule: Q01DX Z (ip), vehicle: water 105 % of control | dose: 8.0 mg/kg/injection, schedule: Q01DX Z (ip), vehicle: water 107 % of control | dose: 8.8 mg/kg/injection, schedule: Q01DX Z (ip), vehicle: water 114 % of control | dose: 12.0 mg/kg/injection, schedule: Q01DX Z (ip), vehicle: water 105 % of control | dose: 13.3 mg/kg/injection, schedule: Q01DX Z (ip), vehicle: water 108 % of control | dose: 20.0 mg/kg/injection, schedule: Q01DX Z (ip), vehicle: water 122 % of control

Cc1cc(C(C)(C)C)c(Oc2ccc([N+](=O)[O-])cc2S(=O)(=O)O)c(C(C)(C)C)c1
inactive: [5] 86 % of control | [6] 88 % of control

CN1CCN(C(=O)Nc2cccc(Cl)c2Cl)CC1
inactive: dose: 25.0 mg/kg/injection, schedule: Q01DX009 (ip), vehicle: saline 92 % of control | dose: 50.0 mg/kg/injection, schedule: Q01DX009 (ip), vehicle: saline 87 % of control | dose: 100.0 mg/kg/injection, schedule: Q01DX009 (ip), vehicle: saline 97 % of control and 102 % of control

CC(C(N)=O)N1C(=O)C2C3C=CC(C3)C2C1=O (stereo unspecified)
inactive: [1] 109 % of control | [7] 97 % of control
